Counter-ions that a name gives are not always drawn.

For this experiment, the target named is T1, ETB Receptor (Sus scrofa, UniProt P35463).
T1 construct: Porcine cerebellum was homogenized in 25 volumes (w/v) of 10 mM Hepes (pH 7.4); from tissue; host or cells: porcine cerebellum membranes
T1 sequence (P35463 27-443): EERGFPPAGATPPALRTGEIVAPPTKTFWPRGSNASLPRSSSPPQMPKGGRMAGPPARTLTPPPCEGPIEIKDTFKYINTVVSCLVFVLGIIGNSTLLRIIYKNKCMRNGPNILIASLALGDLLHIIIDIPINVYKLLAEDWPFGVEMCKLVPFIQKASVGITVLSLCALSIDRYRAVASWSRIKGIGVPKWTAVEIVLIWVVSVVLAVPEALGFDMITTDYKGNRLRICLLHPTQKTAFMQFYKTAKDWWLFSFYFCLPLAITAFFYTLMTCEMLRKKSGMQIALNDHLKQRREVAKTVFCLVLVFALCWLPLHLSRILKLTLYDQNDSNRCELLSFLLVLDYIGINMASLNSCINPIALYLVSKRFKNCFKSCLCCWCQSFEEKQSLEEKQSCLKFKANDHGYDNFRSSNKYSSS
Description: ETB receptor binding assay: [125I]ET-3 binding to membranes. Particulars: test compound 1 µM; displacement of 0.1 nM [125I]ET-3; Porcine cerebellum membranes; 4 hours at 25 °C. As for the experimental part:
Preparation of membranes from Porcine cerebellum:
Porcine cerebellum was homogenized in 25 volumes (w/v) of 10 mM Hepes (pH 7.4) containing 0.25 M sucrose and protease inhibitors (3 mM EDTA, 0.1 mM PMSF, and 5 µg/ml Pepstatin A) by 3-10 sec polytron at 13,500 rpm with 10 sec intervals. The mixture was centrifuged at 1000xg for 10 min. The supernatant was collected and centrifuged at 30,000xg for 30 min. The precipitate was resuspended in Buffer A (20 mM Tris, 100 mM NaCl, 10 mM MgCl2, pH 7.4) containing the aforementioned protease inhibitors and centrifuged again. The final pellet was resuspended in Buffer A containing protease inhibitors and stored at -80°C until used. Protein content was determined by the Bio-Rad dye-binding protein assay.
[^125I]ET-3 binding to membranes:
Binding assays were performed in 96-well microtiter plates pretreated with 0.1% BSA. Membranes prepared from cells were diluted ∼100 fold in Buffer B (20 mM Tris, 100 mM NaCl, 10 mM MgCl2, pH 7.4, with 0.2% BSA, 0.1 mM PMSF, 5 µg/mL Pepstatin A, 0.025% bacitracin, and 3 mM EDTA) to a final concentration of 0.2 mg/mL of protein. In competition studies, membranes (0.02 mg) were incubated with 0.1 nM of [^125I]ET-3 in Buffer B (final volume: 0.2 mL) in the presence of increasing concentrations of unlabeled ET-3 or a test compound for 4 hours at 25 °C. After incubation, unbound ligands were separated from bound ligands by a vacuum filtration method using glass-fiber filter strips in PHD cell harvesters (Cambridge Technology, Inc., MA), followed by washing the filter strips with saline (1 mL) for three times. Nonspecific binding was determined in the presence of 1 µM ET-1. The per cent inhibition at a concentration of 1 µM is shown. […]
In general, inhibition refers to the percentage by which the read-out fell short of the control. Read a low inhibition as a response near the control. With `CCCOc1ccc(C2C(C(=O)O)C(c3ccc4c(c3)OCO4)CN2CC(=O)Nc2c(CC)cccc2CC)cc1` [Example 20, [2R,3R,4S]2-(4-Propoxyphenyl)-4-(1,3-benzodioxol-5-yl)-1-(N-((2,6-diethyl)phenylaminocarbonylmethyl)-pyrrolidine-3-carboxylic acid], the inhibition at 1 µM turned out to be 95.5%.

Regarding `CCc1cc(Br)cc(CC)c1NC(=O)CN1C[C@H](c2ccc3c(c2)OCO3)[C@@H](C(=O)O)[C@@H]1c1ccc(OC)cc1` [Example 17, trans,trans-2-(4-methoxyphenyl)-4-(1,3-benzodioxol-5-yl)-1-((4-bromo-2,6-diethyl)phenylaminocarbonylmethyl)-pyrrolidine-3-carboxylic acid], testing at 1 µM gave an inhibition of 97.1%.

In turn, `CCc1cc(C(=O)O)cc(CC)c1NC(=O)CN1C[C@H](c2ccc3c(c2)OCO3)[C@@H](C(=O)O)[C@@H]1c1ccc(OC)cc1` [Example 24, trans,trans-2-(4-methoxyphenyl)-4-(1,3-benzodioxol-5-yl)-1-((4-carboxy-2,6-diethyl)phenylaminocarbonylmethyl)-pyrrolidine-3-carboxylic acid] registered an inhibition at 1 µM of 93.3%.

`CCc1cc([N+](=O)[O-])cc(CC)c1NC(=O)CN1C[C@H](c2ccc3c(c2)OCO3)[C@@H](C(=O)O)[C@@H]1c1ccc(OC)cc1` [Example 25, trans,trans-2-(4-methoxyphenyl)-4-(1,3-benzodioxol-5-yl)-1-((4-nitro-2,6-diethyl)phenylaminocarbonylmethyl)-pyrrolidine-3-carboxylic acid] gave an inhibition at 1 µM of 95.7%.

For `COc1ccc([C@H]2[C@H](C(=O)O)[C@@H](c3ccc4c(c3)OCO4)CN2CC(=O)Nc2c(Br)cccc2Br)cc1` [Example 14, trans,trans-2-(4-methoxyphenyl)-4-(1,3-benzodioxol-5-yl)-1-((2,6-dibromo)phenylaminocarbonylmethyl)-pyrrolidine-3-carboxylic acid], the inhibition at 1 µM worked out at 96.6%.

For `COc1ccc([C@H]2[C@H](C(=O)O)[C@@H](c3ccc4c(c3)OCO4)CN2CC(=O)Nc2c(C)cccc2C(C)C)cc1` [Example 26, trans,trans-2-(4-methoxyphenyl)-4-(1,3-benzodioxol-5-yl)-1-((2-isopropyl-6-methyl)phenylaminocarbonylmethyl)-pyrrolidine-3-carboxylic acid], testing at 1 µM gave an inhibition of 98%.

The compound `CCOc1ccc([C@H]2[C@H](C(=O)O)[C@@H](c3ccc4c(c3)OCO4)CN2CC(=O)Nc2c(CC)cccc2CC)cc1` [Example 23, (2R,3R,4S)-2-(4-ethoxyphenyl)-4-(1,3-benzodioxol-5-yl)-1-((2,6-diethyl)phenylaminocarbonylmethyl)-pyrrolidine-3-carboxylic acid] displayed an inhibition at 1 µM of 99.1%.

As for `CCc1cccc(OC)c1NC(=O)CN1C[C@H](c2ccc3c(c2)OCO3)[C@@H](C(=O)O)[C@@H]1c1ccc(OC)cc1` [Example 27, trans,trans-2-(4-Methoxyphenyl)-4-(1,3-benzodioxol-5-yl)-1-(N-(2-ethyl-6-methoxy)phenylaminocarbonylmethyl)-pyrrolidine-3-carboxylic acid], testing at 1 µM gave an inhibition of 98.8%.

As to `CCCOc1ccc([C@H]2[C@H](C(=O)O)[C@@H](c3cc(OC)c4c(c3)OCO4)CN2CC(=O)Nc2c(CC)cccc2CC)cc1` (racemic) [Example 12, trans,trans-2-(4-propoxyphenyl)-4-(7-methoxy-1,3-benzodioxol-5-yl)-1-((2,6-diethyl)phenylaminocarbonylmethyl)-pyrrolidine-3-carboxylic acid], 1 µM produced 96.7% inhibition.

Turning to `COc1ccc([C@H]2[C@H](C(=O)O)[C@@H](c3ccc4c(c3)OCO4)CN2CC(=O)Nc2c(C)cccc2C)cc1` (racemic) [Example 11, trans,trans-2-(4-methoxyphenyl)-4-(1,3-benzodioxol-5-yl)-1-((2,6-dimethyl)phenylaminocarbonylmethyl)-pyrrolidine-3-carboxylic acid], testing at 1 µM gave an inhibition of 96%.

In the case of `CCOc1ccc([C@H]2[C@H](C(=O)O)[C@@H](c3ccc4c(c3)OCO4)CN2CC(=O)Nc2c(CC)cccc2CC)cc1` (racemic) [Example 10, trans,trans-2-(4-ethoxyphenyl)-4-(1,3-benzodioxol-5-yl)-1-((2,6-diethyl)phenylaminocarbonylmethyl)-pyrrolidine-3-carboxylic acid], the inhibition at 1 µM is 95.2%.

`CCc1cccc(CC)c1NC(=O)CN1C[C@H](c2ccc3c(c2)OCO3)[C@@H](C(=O)O)[C@@H]1c1ccc(OC)cc1` [Example 15, [2R,3R,4S]2-(4-Methoxyphenyl)-4-(1,3-benzodioxol-5-yl)-1-(N-(2,6-diethyl)phenylaminocarbonylmethyl)-pyrrolidine-3-carboxylic acid, hydrochloride salt] gave an inhibition at 1 µM of 93.4%.

For `CCCOc1ccc([C@H]2[C@H](C(=O)O)[C@@H](c3ccc4c(c3)OCO4)CN2CC(=O)Nc2c(CC)cccc2CC)cc1` (racemic) [Example 5, trans,trans-2-(4-Propoxyphenyl)-4-(1,3-benzodioxol-5-yl)-1-((2,6-diethyl)phenylaminocarbonylmethyl)-pyrrolidine-3-carboxylic acid], the inhibition at 1 µM is 96.5%.

`CCc1cc(C)cc(CC)c1NC(=O)CN1C[C@H](c2ccc3c(c2)OCO3)[C@@H](C(=O)O)[C@@H]1c1ccc(OC)cc1` [Example 22, trans,trans-2-(4-methoxyphenyl)-4-(1,3-benzodioxol-5-yl)-1-((2,6-diethyl-4-methyl)phenylaminocarbonylmethyl)-pyrrolidine-3-carboxylic acid] yielded an inhibition at 1 µM of 95.3%.

The compound `CCc1cccc(CC)c1NC(=O)CN1C[C@H](c2ccc3c(c2)OCO3)[C@@H](C(=O)O)[C@@H]1c1ccc(OC)cc1` (racemic) [Example 4, trans,trans-2-(4-Methoxyphenyl)-4-(1,3-benzodioxol-5-yl)-1-((2,6-diethyl)phenylaminocarbonylmethyl)-pyrrolidine-3-carboxylic acid] returned an inhibition at 1 µM of 94%.

`CCc1cc(CC)c(NC(=O)CN2C[C@H](c3ccc4c(c3)OCO4)[C@@H](C(=O)O)[C@@H]2c2ccc(OC)cc2)c(CC)c1` [Example 19, trans,trans-2-(4-methoxyphenyl)-4-(1,3-benzodioxol-5-yl)-1-((2,4,6-triethyl)phenylaminocarbonylmethyl)-pyrrolidine-3-carboxylic acid]: testing at 1 µM gave an inhibition of 94.9%.

For `COc1ccc([C@H]2[C@H](C(=O)O)[C@@H](c3ccc4c(c3)OCO4)CN2CC(=O)Nc2c(C)cc(C)cc2C)cc1` (racemic) [Example 1, trans,trans-2-(4-Methoxyphenyl)-4-(1,3-benzodioxol-5-yl)-1-((2,4,6-trimethyl)phenylaminocarbonylmethyl)-pyrrolidine-3-carboxylic acid], 1 µM produced 96.4% inhibition.

`CCc1cccc(CC)c1NC(=O)CN1C[C@H](c2ccc3c(c2)OCO3)[C@@H](C(=O)O)[C@@H]1c1ccc(OC)c(F)c1` (racemic) [Example 6, trans,trans-2-(3-Fluoro-4-methoxyphenyl)-4-(1,3-benzodioxol-5-yl)-1-((2,6-diethyl)phenylaminocarbonylmethyl)-pyrrolidine-3-carboxylic acid] came in with an inhibition at 1 µM of 92.9%.

These data come from patent EP0888340B1, “4-(BENZO-1,3-DIOXOLYL)-PYRROLIDINE-3-CARBOXYLIC ACID DERIVATIVES AS ENDOTHELIN ANTAGONISTS” (Abbott Laboratories, priority 1996, dated 1997).
